Tests used:
[1] = tested on: Human immunodeficiency virus 1; experiment: Antiviral activity against HIV-1 3B infected in human MT4 cells assessed as reduction in virus-induced cytopathic effect incubated for 5 days by MTT assay; format: functional, organism-based; conditions: Human immunodeficiency virus 1, 3B, MT4, 120 h
[2] = tested on: Human immunodeficiency virus 1; experiment: Antiviral activity against drug resistant HIV-1 RES056 harboring reverse transcriptase K103N/Y181C double mutant infected in human MT4 cells assessed as reduction in virus-induced cytopathic effect incubated for 5 days by MTT assay; format: functional, organism-based; conditions: Human immunodeficiency virus 1, RES056, MT4, 120 h
[3] = Cytotoxicity against human MT4 cells assessed as reduction in cell viability incubated for 5 days by MTT assay; format: cell-based
[4] = Selectivity index, ratio of CC50 for human MT4 cells to EC50 for antiviral activity against HIV IIIB; format: toxicity; conditions: read-out: Ratio CC50/EC50
[5] = Selectivity index, ratio of CC50 for human MT4 cells to EC50 for antiviral activity against HIV RES056; format: toxicity; conditions: read-out: Ratio CC50/EC50
[6] = tested on: Human immunodeficiency virus 1; experiment: Antiviral activity against drug resistant HIV-1 harboring reverse transcriptase E138K mutant infected in human MT4 cells assessed as reduction in virus-induced cytopathic effect incubated for 5 days by MTT assay; format: functional, organism-based; conditions: Human immunodeficiency virus 1, MT4, 120 h
[7] = tested on: Human immunodeficiency virus 1; experiment: Antiviral activity against drug resistant HIV-1 harboring reverse transcriptase L100I mutant infected in human MT4 cells assessed as reduction in virus-induced cytopathic effect incubated for 5 days by MTT assay; format: functional, organism-based; conditions: Human immunodeficiency virus 1, MT4, 120 h
[8] = tested on: Human immunodeficiency virus 1; experiment: Antiviral activity against drug resistant HIV-1 harboring reverse transcriptase K103N mutant infected in human MT4 cells assessed as reduction in virus-induced cytopathic effect incubated for 5 days by MTT assay; format: functional, organism-based; conditions: Human immunodeficiency virus 1, MT4, 120 h
[9] = tested on: Human immunodeficiency virus 1; experiment: Antiviral activity against drug resistant HIV-1 harboring reverse transcriptase Y181C mutant infected in human MT4 cells assessed as reduction in virus-induced cytopathic effect incubated for 5 days by MTT assay; format: functional, organism-based; conditions: Human immunodeficiency virus 1, MT4, 120 h
[10] = tested on: Human immunodeficiency virus 1; experiment: Antiviral activity against drug resistant HIV-1 harboring reverse transcriptase Y188L mutant infected in human MT4 cells assessed as reduction in virus-induced cytopathic effect incubated for 5 days by MTT assay; format: functional, organism-based; conditions: Human immunodeficiency virus 1, MT4, 120 h
[11] = tested on: Human immunodeficiency virus 1; experiment: Antiviral activity against drug resistant HIV-1 harboring reverse transcriptase F227L/V106A double mutant infected in human MT4 cells assessed as reduction in virus-induced cytopathic effect incubated for 5 days by MTT assay; format: functional, organism-based; conditions: Human immunodeficiency virus 1, MT4, 120 h
[12] = Acute toxicity in Kunming mouse assessed as effect on animal death at 1000 mg/kg, ig administered as single dose and observed every day for 1 week; format: organism-based; conditions: in vivo, po, 168 h
[13] = Acute toxicity in Kunming mouse assessed as effect on lethargy at 1000 mg/kg, ig administered as single dose and observed every day for 1 week; format: organism-based; conditions: in vivo, po, 168 h
[14] = Acute toxicity in Kunming mouse assessed as effect on clonic convulsion at 1000 mg/kg, ig administered as single dose and observed every day for 1 week; format: organism-based; conditions: in vivo, po, 168 h
[15] = Acute toxicity in Kunming mouse assessed as effect on ruffled fur at 1000 mg/kg, ig administered as single dose and observed every day for 1 week; format: organism-based; conditions: in vivo, po, 168 h
[16] = Acute toxicity in Kunming mouse assessed as effect on anorexia at 1000 mg/kg, ig administered as single dose and observed every day for 1 week; format: organism-based; conditions: in vivo, po, 168 h
[17] = Acute toxicity in Kunming mouse assessed as effect on body weight gain at 1000 mg/kg, ig administered as single dose and observed every day for 1 week; format: organism-based; conditions: in vivo, po, 168 h
[18] = Sub-acute toxicity in Kunming mouse assessed as effect on animal death at 50 mg/kg, po administered once every other day for 14 days; format: organism-based; conditions: in vivo, 336 h
[19] = Sub-acute toxicity in Kunming mouse assessed as effect on lethargy at 50 mg/kg, po administered once every other day for 14 days; format: organism-based; conditions: in vivo, 336 h
[20] = Sub-acute toxicity in Kunming mouse assessed as effect on clonic convulsion at 50 mg/kg, po administered once every other day for 14 days; format: organism-based; conditions: in vivo, 336 h
[21] = Sub-acute toxicity in Kunming mouse assessed as effect on ruffled fur at 50 mg/kg, po administered once every other day for 14 days; format: organism-based; conditions: in vivo, 336 h
[22] = Sub-acute toxicity in Kunming mouse assessed as effect on anorexia at 50 mg/kg, po administered once every other day for 14 days; format: organism-based; conditions: in vivo, 336 h
[23] = Sub-acute toxicity in Kunming mouse assessed as increase in body weight at 50 mg/kg, po administered once every other day for 14 days; format: organism-based; conditions: in vivo, 336 h
[24] = Sub-acute toxicity in Kunming mouse assessed as heart damage at 50 mg/kg, po administered once every other day for 14 days measured on day 14 by HE-staining based assay; format: organism-based; conditions: in vivo, 336 h
[25] = Sub-acute toxicity in Kunming mouse assessed as liver damage at 50 mg/kg, po administered once every other day for 14 days measured on day 14 by HE-staining based assay; format: organism-based; conditions: in vivo, 336 h
[26] = Sub-acute toxicity in Kunming mouse assessed as spleen damage at 50 mg/kg, po administered once every other day for 14 days measured on day 14 by HE-staining based assay; format: organism-based; conditions: in vivo, 336 h
[27] = Sub-acute toxicity in Kunming mouse assessed as lungs damage at 50 mg/kg, po administered once every other day for 14 days measured on day 14 by HE-staining based assay; format: organism-based; conditions: in vivo, 336 h
[28] = Sub-acute toxicity in Kunming mouse assessed as kidney damage at 50 mg/kg, po administered once every other day for 14 days measured on day 14 by HE-staining based assay; format: organism-based; conditions: in vivo, 336 h
[29] = Acute toxicity in Kunming mouse assessed as effect on animal growth at 1000 mg/kg, ig administered as single dose and observed every day for 1 week; format: organism-based; conditions: in vivo, po, 168 h
[30] = Sub-acute toxicity in Kunming mouse assessed as effect on animal growth at 50 mg/kg, po administered once every other day for 14 days; format: organism-based; conditions: in vivo, 336 h

## Cc1cc(C)cc(S(=O)(=O)c2c(C(=O)N[C@H]3CCN(CC(N)=O)C3)[nH]c3ccc(Cl)cc23)c1
[1]
  EC50: 9.8 nM
[2]
  EC50: > 28100 nM
[3]
  CC50 at 120 h: 28100 nM
[4]
  selectivity ratio: 2880
[5]
  selectivity ratio: < 1
[6]
  EC50: 14 nM
[7]
  EC50: 11 nM
[8]
  EC50: 25 nM
[9]
  EC50: 96 nM
[10]
  EC50: 310 nM
[11]
  EC50: 94 nM
[12]
  Activity: Non-Toxic
[13]
  Activity: Non-Toxic
[14]
  Activity: Non-Toxic
[15]
  Activity: Non-Toxic
[16]
  Activity: Non-Toxic
[17]
  Activity: Non-Toxic
[18]
  Activity: Non-Toxic
[19]
  Activity: Non-Toxic
[20]
  Activity: Non-Toxic
[21]
  Activity: Non-Toxic
[22]
  Activity: Non-Toxic
[23]
  Activity: Non-Toxic
[24]
  Activity: Non-Toxic
[25]
  Activity: Non-Toxic
[26]
  Activity: Non-Toxic
[27]
  Activity: Non-Toxic
[28]
  Activity: Non-Toxic
[29]
  Activity: Non-Toxic
[30]
  Activity: Non-Toxic

Reference: ChEMBL document CHEMBL4359892, “Discovery of novel indolylarylsulfones as potent HIV-1 NNRTIs via structure-guided scaffold morphing” (Eur J Med Chem, 2019)
